# Tests used:
# [1] = target: T1, α4β3δ GABAA receptors (Homo sapiens, UniProt P28472+P48169); assay: Manual patch clamp electrophysiology of recombinant α4β3δ GABAA receptors in CHO cells; type: cell-based; conditions: 10 μM test article, GABA EC20 = 2 μM, read-out: GABA (α4β3δ) Manual patch in CHO, % efficacy at 10 μM
# T1 construct: expressed in transfected cells; host or cells: CHO cells (transient transfection, Lipofectamine)
# [2] = target: [35S]-TBPS binding, rat brain cortical membranes; assay: Steroid inhibition of [35S]-TBPS binding; conditions: 3 nM [35S]-TBPS, in the presence of 5 μM GABA
# Method: [35S]-Butylbicyclophosphorothionate (TBPS) binding assays using rat brain cortical membranes in the presence of 5 μM GABA has been described (Gee et al, J. Pharmacol. Exp. Ther. 1987, 241, 346-353; Hawkinson et al, Mol. Pharmacol. 1994, 46, 977-985; Lewin, A. H et al., Mol. Pharmacol. 1989, 35, 189-194).
# Briefly, cortices are rapidly removed following decapitation of carbon dioxide-anesthetized Sprague-Dawley rats (200-250 g). The cortices are homogenized in 10 volumes of ice-cold 0.32 M sucrose using a glass/teflon homogenizer and centrifuged at 1500×g for 10 min at 4° C. The resultant supernatants are centrifuged at 10,000×g for 20 min at 4° C. to obtain the P2 pellets. The P2 pellets are resuspended in 200 mM NaCl/50 mM Na—K phosphate pH 7.4 buffer and centrifuged at 10,000×g for 10 min at 4° C. This washing procedure is repeated twice and the pellets are resuspended in 10 volumes of buffer. Aliquots (100 μL) of the membrane suspensions are incubated with 3 nM [^35S]-TBPS and 5 μL aliquots of test drug dissolved in dimethyl sulfoxide (DMSO) (final 0.5%) in the presence of 5 μM GABA. The incubation is brought to a final volume of 1.0 mL with buffer. Nonspecific binding is determined in the presence of 2 μM unlabeled TBPS and ranged from 15 to 25%. […] Filter bound radioactivity is measured by liquid scintillation spectrometry. […]
# [3] = target: T2, α1β2γ2 GABAA receptors (Homo sapiens, UniProt P14867+P47870); assay: Patch clamp electrophysiology (QPatch) of recombinant α1β2γ2 GABAA receptors in LTK cells; type: cell-based; conditions: 10 μM test article, GABA EC20 = 2 μM, read-out: GABA (α1β2γ2) Qpatch in Ltk, % efficacy at 10 μM
# T2 construct: expressed in transfected cells
# T2 sequence (P14867 28-456): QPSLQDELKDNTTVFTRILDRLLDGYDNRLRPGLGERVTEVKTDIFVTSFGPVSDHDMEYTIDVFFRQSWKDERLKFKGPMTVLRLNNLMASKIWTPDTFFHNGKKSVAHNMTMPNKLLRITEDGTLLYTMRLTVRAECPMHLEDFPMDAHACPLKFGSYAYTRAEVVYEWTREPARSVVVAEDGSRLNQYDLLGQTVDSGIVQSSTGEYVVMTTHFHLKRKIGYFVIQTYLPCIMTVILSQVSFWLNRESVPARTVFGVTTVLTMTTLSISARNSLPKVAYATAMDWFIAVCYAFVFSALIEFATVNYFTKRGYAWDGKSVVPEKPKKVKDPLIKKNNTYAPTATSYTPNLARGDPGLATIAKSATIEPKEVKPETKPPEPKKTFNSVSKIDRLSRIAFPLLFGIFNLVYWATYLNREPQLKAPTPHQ
# T2 sequence (P47870 25-512 limits assumed): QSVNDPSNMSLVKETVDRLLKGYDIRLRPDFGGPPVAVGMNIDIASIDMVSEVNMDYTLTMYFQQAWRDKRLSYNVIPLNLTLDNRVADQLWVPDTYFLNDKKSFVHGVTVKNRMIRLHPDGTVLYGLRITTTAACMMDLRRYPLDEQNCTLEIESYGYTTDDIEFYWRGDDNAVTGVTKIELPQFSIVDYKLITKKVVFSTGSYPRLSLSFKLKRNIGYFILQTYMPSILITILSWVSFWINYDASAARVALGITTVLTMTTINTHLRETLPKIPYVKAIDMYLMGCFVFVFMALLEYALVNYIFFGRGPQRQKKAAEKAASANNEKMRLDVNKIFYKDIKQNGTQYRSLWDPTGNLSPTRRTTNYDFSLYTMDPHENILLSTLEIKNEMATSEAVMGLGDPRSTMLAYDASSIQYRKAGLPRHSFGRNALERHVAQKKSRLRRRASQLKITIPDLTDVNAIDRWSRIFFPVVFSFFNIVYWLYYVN
# T2 sequence (P18507 40-475 partner): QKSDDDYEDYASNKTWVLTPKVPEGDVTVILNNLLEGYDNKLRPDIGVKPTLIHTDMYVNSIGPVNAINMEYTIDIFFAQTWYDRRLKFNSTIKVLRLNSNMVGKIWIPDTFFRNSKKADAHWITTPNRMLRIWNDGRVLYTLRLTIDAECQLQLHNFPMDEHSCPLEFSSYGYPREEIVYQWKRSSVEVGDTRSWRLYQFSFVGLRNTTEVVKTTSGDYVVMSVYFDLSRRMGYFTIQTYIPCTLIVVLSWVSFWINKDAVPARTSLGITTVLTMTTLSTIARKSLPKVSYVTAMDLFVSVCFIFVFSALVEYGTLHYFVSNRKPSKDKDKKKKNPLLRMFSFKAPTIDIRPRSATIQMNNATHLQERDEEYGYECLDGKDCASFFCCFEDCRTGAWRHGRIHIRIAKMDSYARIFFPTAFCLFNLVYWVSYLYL
# T1 sequence (P48169 36-554): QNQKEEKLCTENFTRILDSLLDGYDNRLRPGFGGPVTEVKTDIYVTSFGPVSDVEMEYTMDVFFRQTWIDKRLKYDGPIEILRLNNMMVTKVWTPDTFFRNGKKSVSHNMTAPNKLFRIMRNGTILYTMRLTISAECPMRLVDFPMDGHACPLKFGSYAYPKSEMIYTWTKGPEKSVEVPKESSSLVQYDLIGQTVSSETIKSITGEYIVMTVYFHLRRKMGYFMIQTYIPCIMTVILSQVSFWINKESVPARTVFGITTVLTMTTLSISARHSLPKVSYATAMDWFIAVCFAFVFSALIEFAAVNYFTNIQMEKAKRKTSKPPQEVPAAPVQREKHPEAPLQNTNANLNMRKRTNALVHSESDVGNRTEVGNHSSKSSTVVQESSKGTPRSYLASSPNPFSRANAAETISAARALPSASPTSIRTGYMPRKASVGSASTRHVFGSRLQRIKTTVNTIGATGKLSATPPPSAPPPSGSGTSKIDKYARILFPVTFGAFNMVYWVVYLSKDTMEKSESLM
# T1 sequence (P28472 26-473): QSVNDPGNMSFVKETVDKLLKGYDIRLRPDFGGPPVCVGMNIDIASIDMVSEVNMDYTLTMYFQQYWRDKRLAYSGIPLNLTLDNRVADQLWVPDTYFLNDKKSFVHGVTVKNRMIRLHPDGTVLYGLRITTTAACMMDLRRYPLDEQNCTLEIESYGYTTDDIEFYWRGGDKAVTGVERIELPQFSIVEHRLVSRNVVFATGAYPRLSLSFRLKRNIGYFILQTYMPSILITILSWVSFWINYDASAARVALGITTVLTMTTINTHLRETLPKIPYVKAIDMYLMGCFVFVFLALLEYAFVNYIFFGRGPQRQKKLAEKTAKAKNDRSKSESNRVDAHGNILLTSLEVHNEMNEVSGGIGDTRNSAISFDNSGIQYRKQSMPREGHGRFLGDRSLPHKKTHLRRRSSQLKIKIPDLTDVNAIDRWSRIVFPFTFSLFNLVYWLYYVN
# T1 sequence (O14764 17-452 partner limits assumed): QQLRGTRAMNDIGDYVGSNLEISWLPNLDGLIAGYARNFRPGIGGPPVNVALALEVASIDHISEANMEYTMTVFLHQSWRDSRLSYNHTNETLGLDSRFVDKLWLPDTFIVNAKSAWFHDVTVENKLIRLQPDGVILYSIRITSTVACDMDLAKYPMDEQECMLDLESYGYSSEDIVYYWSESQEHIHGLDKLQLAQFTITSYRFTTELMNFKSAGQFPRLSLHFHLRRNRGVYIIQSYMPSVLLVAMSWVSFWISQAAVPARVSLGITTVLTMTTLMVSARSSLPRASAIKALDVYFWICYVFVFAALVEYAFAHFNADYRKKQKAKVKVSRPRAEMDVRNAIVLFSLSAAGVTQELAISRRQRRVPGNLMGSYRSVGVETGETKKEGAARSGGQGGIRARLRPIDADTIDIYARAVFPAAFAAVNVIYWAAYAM
smiles,measurement,setting,value
CC(=O)[C@H]1CC[C@H]2[C@@H]3CC[C@@H]4C[C@](C)(O)CC[C@]4(COC(C)C)[C@H]3CC[C@]12C [Compound 5],Emax at 10 µM,[1],> 500%
same,IC50,[2],< 10 nM
same,Emax at 10 µM,[3],> 500%
